From US12180145B2, “Fused cyclooctyne compounds and their use in metal-free click reactions” (Synaffix B.V., priority 2010, dated 2024)

Legend:
[1] = prior art cyclooctynes; cited from earlier work
[2] = Reaction kinetics of cycloaddition (SPAAC) with benzyl azide, followed by proton NMR; type: physicochemical
Excerpt: In a preferred embodiment, a compound of the Formula (IIa), (IIb) and/or (IIc), or a conjugate thereof as described above, is reacted with a compound comprising a 1,3-dipole or a 1,3-(hetero)diene. For example the cycloaddition of (IIa) with benzyl azide in aqueous conditions proceeds rapidly and cleanly to the corresponding triazole adducts with excellent reaction kinetics (k=0.09-0.28 M^−1 s^−1, depending on the solvent). […] Consequently, a mixture of the exo- and endo-compounds according to the invention may be applied in some applications, avoiding the need for separation of the exo- and endo-compounds and even further simplifying the synthesis of the compounds according to the invention.
The reaction kinetics for cycloaddition with the prototypical azide benzyl azide were investigated. Thus, compound endo-IIa.2 was dissolved in a 3:1 mixture of CD3CN and D2O and mixed with benzyl azide at a final concentration of 18 mM. […] A significant solvent effect was noticed because the same cycloaddition reaction in a 1:2 mixture of CD3CN and D2O gave rate constants of 0.28 and 0.25 M^−1 s^−1 for endo-IIa.2 and exo-IIa.2, respectively.

[3] = 3:1 mixture of CD3CN and D2O, final concentration 18 mM

| SMILES | reaction rate constant k of cycloaddition with azide [1] [M⁻¹ s⁻¹] | second-order rate constant of cycloaddition with benzyl azide ([2]; 1:2 mixture of CD3CN and D2O) [M⁻¹ s⁻¹] | second-order rate constant of cycloaddition with benzyl azide [2, 3] [M⁻¹ s⁻¹] |
| --- | --- | --- | --- |
| OC1Cc2ccccc2C#Cc2ccccc21 (stereo not drawn) [DIBO] | 0.12 | – | – |
| OC[C@H]1[C@H]2CCC#CCC[C@@H]12 [endo-IIa.2, endo-9-(hydroxymethyl)bicyclo[6.1.0]non-4-yne] | – | 0.28 | 0.12 |
| O=C(O)CC1CCCCC#CC1(F)F (stereo not drawn) [DIFO3] | ≤ 0.076 | – | – |
| OCC1C2CCC#CCCC12 (stereo not drawn) [exo-IIa.2, 9-(hydroxymethyl)bicyclo[6.1.0]non-4-yne] | – | 0.25 | 0.10 |
